Data published in article PMC8863579, “Effects of pharmacological inhibition of the sodium‐dependent phosphate cotransporter 2b (NPT2b) on intestinal phosphate absorption in mouse and rat models” (Pharmacology Research & Perspectives, 2022).
Where “and” joins values, the source holds several entries; their conditions need not be identical. Equal values may be shown once.

Columns and labels:
[1] = test system: intestinal phosphate absorption; test: Recovery of radiolabeled phosphate in gastrointestinal tract of rats at 4 h; type: in vivo, rat; conditions: LY3358966 10 mg/kg
Protocol: Male Sprague Dawley rats, 260–287 g for the first study and 274–362 g for the second study, were fasted for 4 h (the first 4 h of the light cycle) then dosed with placebo, a 50 or 150 mg/kg sevelamer HCl water dispersion, LY3358966 SDD (10 mg/kg API) dissolved in water, or a combination of LY3358966 SDD and sevelamer HCl. Fifteen minutes later, the animals were dosed with radiolabeled phosphate as described above. In the first study, the animals were given free access to food, then feces were collected at 6, 24, and 48 h post radiolabeled phosphate dose. In the second study, the animals were fasted an additional 4 h, then feces, stomach, small intestine, and large intestine were individually collected. The gastrointestinal tract tissues and feces were digested overnight at 37°C in 1 N NaOH, and the recovered radioactivity was determined.

NPT2b = biological target: T1, NPT2b (Rattus norvegicus, UniProt Q9JJ09); test: Acute phosphate uptake into plasma in rats; type: in vivo; conditions: 10 mg/kg
T1 construct: from tissue; host or cells: intestine of live Sprague Dawley rats, oral dosing
T1 sequence (Q9JJ09 1-695): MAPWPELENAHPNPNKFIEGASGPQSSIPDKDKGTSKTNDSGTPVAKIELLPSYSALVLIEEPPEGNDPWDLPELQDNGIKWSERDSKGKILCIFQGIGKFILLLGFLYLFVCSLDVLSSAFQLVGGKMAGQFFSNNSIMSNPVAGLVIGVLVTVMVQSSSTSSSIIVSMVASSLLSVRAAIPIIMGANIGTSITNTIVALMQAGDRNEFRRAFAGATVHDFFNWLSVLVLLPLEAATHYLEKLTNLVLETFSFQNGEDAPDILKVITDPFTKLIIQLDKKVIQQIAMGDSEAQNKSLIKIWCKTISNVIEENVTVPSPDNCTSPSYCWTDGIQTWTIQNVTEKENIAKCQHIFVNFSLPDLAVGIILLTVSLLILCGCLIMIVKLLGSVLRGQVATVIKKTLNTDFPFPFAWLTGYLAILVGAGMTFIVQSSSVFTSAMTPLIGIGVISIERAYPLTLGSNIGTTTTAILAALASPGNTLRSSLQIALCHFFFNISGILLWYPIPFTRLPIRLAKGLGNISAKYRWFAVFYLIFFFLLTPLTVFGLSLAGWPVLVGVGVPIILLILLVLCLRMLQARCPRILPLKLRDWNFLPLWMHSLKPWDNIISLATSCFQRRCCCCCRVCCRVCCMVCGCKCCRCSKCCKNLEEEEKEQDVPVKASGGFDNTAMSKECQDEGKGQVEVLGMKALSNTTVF
Protocol: A similar method was used to determine the ability of LY3358966 to inhibit acute phosphate uptake into plasma in Sprague Dawley rats (192–225 g, n = 14/group). In the rat studies, a 2 ml volume of the radioactive phosphate dosing solution (about 10 million dpm of H3 ^33PO4) was dosed to each animal. Due to the low inhibitory activity at 15 min after dosing the compound, the effect at 4 h was not determined.

- decrease of acute phosphate uptake into plasma, mean ± SEM of three studies (NPT2b; 15 min): 22% and 22 ± 3%
- decrease of phosphate absorption (acute uptake into plasma) (NPT2b; two additional single studies): 28.2% and 19.2%
SMILES: CC1(C)CN(C(=O)NCCCCO)CCN1Cc1cccc(C(=O)Nc2sc3c(c2C(=O)Nc2cc(F)c(CCc4ccc(C(=O)O)cc4)c(F)c2)CCCC3)c1 [LY3358966, 4‐[2‐[2,6‐difluoro‐4‐[[2‐[[3‐[[4‐(4‐hydroxybutylcarbamoyl)‐2,2‐dimethyl‐piperazin‐1‐yl]methyl]benzoyl]amino]‐4,5,6,7‐tetrahydrobenzothiophene‐3‐carbonyl]amino]phenyl]ethyl]benzoic acid]
- increase of 33P-phosphate recovery in the gastrointestinal tract over vehicle ([1]; 4 h): 6.34%
- 33P Recovered in G.I. Tract, Large Intestine (means ± SEM) ([1]; 4 hours): 13.75 ± 2.83%
- 33P Recovered in G.I. Tract, Small Intestine (means ± SEM) ([1]; 4 hours): 15.51 ± 2.37%
- 33P Recovered in G.I. Tract, Stomach (means ± SEM) ([1]; 4 hours): 1.83 ± 0.41%
- 33P Recovered in Total G.I. Tract (means ± SEM) ([1]; 4 hours, 10 mg/kg): 31.09% and 31.09 ± 1.38%
